# Assay results as given in patent publication US11365188B2, “JAK inhibitors” (priority 2018, dated 2022).
# Structures can show the parent of a compound that is named as a salt.
# Columns and labels:
# Format in all cases: biochemical
# JAK1 = JAK1 (Homo sapiens, UniProt P23458); assay: JAK Kinase Assay (JAK1, Caliper EZ Reader, fluoresceinated peptide); settings: ATP 76.5 μM; JAK1 10 nM; 120 minutes at room temperature; read-out: JAK1 inhibition
# JAK2 = JAK2 (Homo sapiens, UniProt O60674); assay: JAK2 Assay (Caliper EZ Reader, fluoresceinated peptide); settings: ATP 11.4 μM; JAK2 0.25 nM; 15 minutes at room temperature; read-out: JAK2 inhibition
# Chain of JAK2 (O60674 whole entry, species assumed): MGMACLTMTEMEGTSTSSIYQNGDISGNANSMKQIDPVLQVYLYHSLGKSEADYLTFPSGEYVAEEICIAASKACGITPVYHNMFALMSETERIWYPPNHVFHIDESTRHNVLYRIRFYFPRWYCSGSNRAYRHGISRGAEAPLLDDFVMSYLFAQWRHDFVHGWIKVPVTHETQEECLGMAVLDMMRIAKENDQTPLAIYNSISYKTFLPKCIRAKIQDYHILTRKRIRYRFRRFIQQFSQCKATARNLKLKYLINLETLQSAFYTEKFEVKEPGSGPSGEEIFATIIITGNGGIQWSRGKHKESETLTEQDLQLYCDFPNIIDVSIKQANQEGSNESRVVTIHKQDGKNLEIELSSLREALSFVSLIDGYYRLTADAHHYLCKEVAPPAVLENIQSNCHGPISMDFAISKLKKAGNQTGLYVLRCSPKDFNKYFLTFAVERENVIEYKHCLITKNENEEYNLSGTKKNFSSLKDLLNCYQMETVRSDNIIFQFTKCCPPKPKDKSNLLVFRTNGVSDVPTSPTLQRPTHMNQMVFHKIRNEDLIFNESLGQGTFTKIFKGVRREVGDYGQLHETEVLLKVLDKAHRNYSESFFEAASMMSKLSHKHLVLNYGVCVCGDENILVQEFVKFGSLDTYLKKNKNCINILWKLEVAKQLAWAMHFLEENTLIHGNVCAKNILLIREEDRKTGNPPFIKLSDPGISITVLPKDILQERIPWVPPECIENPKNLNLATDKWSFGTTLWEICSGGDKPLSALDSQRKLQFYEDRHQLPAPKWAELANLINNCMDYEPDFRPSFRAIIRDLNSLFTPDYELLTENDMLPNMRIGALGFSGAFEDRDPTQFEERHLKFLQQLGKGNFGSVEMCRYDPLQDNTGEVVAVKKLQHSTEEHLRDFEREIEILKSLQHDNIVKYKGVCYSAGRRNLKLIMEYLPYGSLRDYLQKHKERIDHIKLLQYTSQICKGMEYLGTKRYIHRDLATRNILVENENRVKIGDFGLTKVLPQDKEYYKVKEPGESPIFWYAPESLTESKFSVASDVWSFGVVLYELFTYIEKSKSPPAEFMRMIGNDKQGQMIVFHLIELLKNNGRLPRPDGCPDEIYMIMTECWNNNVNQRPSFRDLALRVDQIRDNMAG
# JAK3 = target: T1, JAK3 (Homo sapiens, UniProt P52333); assay: JAK3 Assay (Caliper EZ Reader, fluoresceinated peptide); settings: ATP 3.5 μM; JAK3 0.5 nM; 30 minutes at room temperature; read-out: JAK3 inhibition
# T1 sequence (P52333 1-1124): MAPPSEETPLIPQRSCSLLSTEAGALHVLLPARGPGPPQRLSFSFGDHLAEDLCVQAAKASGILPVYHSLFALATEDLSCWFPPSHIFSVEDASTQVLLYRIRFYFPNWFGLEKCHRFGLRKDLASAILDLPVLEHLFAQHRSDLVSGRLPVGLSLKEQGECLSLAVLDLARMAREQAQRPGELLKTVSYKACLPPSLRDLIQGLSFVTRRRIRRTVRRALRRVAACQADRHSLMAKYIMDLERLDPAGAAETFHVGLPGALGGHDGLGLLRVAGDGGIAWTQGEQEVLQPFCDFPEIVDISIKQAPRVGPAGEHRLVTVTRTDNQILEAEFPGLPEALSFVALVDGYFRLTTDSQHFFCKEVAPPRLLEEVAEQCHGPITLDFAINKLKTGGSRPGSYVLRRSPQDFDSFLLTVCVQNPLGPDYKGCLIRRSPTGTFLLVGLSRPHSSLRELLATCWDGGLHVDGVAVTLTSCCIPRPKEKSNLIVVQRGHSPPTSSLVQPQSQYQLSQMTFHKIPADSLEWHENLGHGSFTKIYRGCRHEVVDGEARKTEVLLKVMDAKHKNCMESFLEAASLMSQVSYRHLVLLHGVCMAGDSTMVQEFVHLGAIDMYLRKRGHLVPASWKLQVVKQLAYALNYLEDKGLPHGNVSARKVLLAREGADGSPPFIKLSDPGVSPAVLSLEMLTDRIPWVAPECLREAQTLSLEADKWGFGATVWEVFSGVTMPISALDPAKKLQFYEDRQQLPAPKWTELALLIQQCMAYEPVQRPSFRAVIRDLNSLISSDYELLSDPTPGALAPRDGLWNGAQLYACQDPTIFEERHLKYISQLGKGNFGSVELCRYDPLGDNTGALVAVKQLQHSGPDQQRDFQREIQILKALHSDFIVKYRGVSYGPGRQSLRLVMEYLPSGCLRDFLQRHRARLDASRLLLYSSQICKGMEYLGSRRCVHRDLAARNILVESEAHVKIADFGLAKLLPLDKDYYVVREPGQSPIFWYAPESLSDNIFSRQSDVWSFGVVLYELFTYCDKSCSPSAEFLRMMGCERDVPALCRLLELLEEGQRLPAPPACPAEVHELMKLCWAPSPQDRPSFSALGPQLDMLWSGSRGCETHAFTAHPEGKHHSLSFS
# Chain of JAK1 (P23458 whole entry, species assumed): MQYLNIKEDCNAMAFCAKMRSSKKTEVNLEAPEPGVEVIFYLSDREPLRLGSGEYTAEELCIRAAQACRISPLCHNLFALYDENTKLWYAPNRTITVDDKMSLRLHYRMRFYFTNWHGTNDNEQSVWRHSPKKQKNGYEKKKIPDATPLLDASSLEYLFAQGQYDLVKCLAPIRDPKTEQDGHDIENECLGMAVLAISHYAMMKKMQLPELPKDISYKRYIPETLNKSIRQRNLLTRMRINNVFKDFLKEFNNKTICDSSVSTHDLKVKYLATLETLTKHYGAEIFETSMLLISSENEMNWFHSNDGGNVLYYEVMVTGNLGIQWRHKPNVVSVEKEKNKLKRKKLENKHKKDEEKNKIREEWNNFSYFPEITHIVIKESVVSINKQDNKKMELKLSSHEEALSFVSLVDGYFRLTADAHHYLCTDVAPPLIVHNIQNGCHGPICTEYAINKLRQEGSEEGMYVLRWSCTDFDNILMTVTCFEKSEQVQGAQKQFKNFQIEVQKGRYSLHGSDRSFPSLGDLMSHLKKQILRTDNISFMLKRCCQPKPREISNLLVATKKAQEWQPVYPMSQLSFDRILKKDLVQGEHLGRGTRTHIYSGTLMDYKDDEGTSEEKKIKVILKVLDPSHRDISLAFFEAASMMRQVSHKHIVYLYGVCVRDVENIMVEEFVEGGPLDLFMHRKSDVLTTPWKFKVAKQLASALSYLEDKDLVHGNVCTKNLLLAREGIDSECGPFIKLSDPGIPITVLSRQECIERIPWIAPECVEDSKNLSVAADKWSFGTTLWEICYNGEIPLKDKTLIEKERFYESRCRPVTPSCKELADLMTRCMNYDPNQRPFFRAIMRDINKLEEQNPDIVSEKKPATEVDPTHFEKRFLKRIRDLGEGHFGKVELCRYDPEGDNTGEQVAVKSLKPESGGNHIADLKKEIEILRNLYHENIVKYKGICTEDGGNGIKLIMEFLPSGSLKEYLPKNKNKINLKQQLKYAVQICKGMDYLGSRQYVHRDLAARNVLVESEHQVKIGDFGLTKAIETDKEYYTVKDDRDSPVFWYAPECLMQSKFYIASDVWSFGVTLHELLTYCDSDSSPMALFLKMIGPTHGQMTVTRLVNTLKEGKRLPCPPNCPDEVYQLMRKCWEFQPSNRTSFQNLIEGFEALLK
IC50 (JAK1) [nM],IC50 (JAK2) [nM],IC50 (JAK3) [nM],SMILES
100 to 1000,100 to 1000,1000 to 10000,"CCCC(=O)N1CCC2(CCC(N(C)c3ncnc4[nH]ccc34)CC2)CC1 [Compound 100, 1-{9-[Methyl-(7H-pyrrolo[2,3-d]pyrimidin-4-yl)-amino]-3-aza-spiro[5.5]undec-3-yl}-butan-1-one]"
100 to 1000,100 to 1000,1000 to 10000,"CN(c1ncnc2[nH]ccc12)C1CCC2(CC1)CCN(C(=O)c1cccc(OC(F)(F)F)c1)CC2 [Compound 101, {9-[Methyl-(7H-pyrrolo[2,3-d]pyrimidin-4-yl)-amino]-3-aza-spiro[5.5]undec-3-yl}-(3-trifluoromethoxy-phenyl)-methanone]"
1000 to 10000,1000 to 10000,≥ 10000,"CN(c1ncnc2[nH]ccc12)C1CC2(C1)CN(C(=O)c1ccc3c(c1)ncn3C)C2 [Compound 49, (6-(methyl(7H-pyrrolo[2,3-d]pyrimidin-4-yl)amino)-2-azaspiro[3.3]heptan-2-yl)(1-methyl-1H-benzo[d]imidazol-5-yl)methanone]"
100 to 1000,100 to 1000,100 to 1000,"CN(c1ncnc2[nH]ccc12)C1CCC2(CC1)CCN(C(=O)Cc1c[nH]c3ccccc13)CC2 [Compound 93, 2-(1H-Indol-3-yl)-1-{9-[methyl-(7H-pyrrolo[2,3-d]pyrimidin-4-yl)-amino]-3-aza-spiro[5.5]undec-3-yl}-ethanone]"
≤ 10,100 to 1000,≥ 10000,"C#Cc1ccc(C(=O)N2CC3(CC(N(C)c4ncnc5[nH]ccc45)C3)C2)cc1Cl [Compound 46, (3-chloro-4-ethynylphenyl)(6-(methyl(7H-pyrrolo[2,3-d]pyrimidin-4-yl)amino)-2-azaspiro[3.3]heptan-2-yl)methanone]"
100 to 1000,100 to 1000,1000 to 10000,"CNCC(=O)N1CCC2(CCC(N(C)c3ncnc4[nH]ccc34)CC2)CC1 [Compound 97, 2-Methylamino-1-{9-[methyl-(7H-pyrrolo[2,3-d]pyrimidin-4-yl)-amino]-3-aza-spiro[5.5]undec-3-yl}-ethanone HCl salt]"
100 to 1000,100 to 1000,100 to 1000,"CN(c1ncnc2[nH]ccc12)C1CCC2(CC1)CCN(C(=O)c1ccc(C#N)c(F)c1)CC2 [Compound 87, 2-Fluoro-4-{9-[methyl-(7H-pyrrolo[2,3-d]pyrimidin-4-yl)-amino]-3-aza-spiro[5.5]undecane-3-carbonyl}-benzonitrile]"
10 to 100,100 to 1000,1000 to 10000,"CN(c1ncnc2[nH]ccc12)C1CC2(C1)CN(C(=O)c1ccc(C#N)cc1Cl)C2 [Compound 37, 3-chloro-4-(6-(methyl(7H-pyrrolo[2,3-d]pyrimidin-4-yl)amino)-2-azaspiro[3.3]heptane-2-carbonyl)benzonitrile]"
100 to 1000,100 to 1000,100 to 1000,"CN(c1ncnc2[nH]ccc12)C1CCC2(CC1)CCN(C(=O)c1cccc(C#N)c1)CC2 [Compound 102, 3-{9-[Methyl-(7H-pyrrolo[2,3-d]pyrimidin-4-yl)-amino]-3-aza-spiro[5.5]undecane-3-carbonyl}-benzonitrile]"
100 to 1000,100 to 1000,100 to 1000,"CN(c1ncnc2[nH]ccc12)C1CCC2(CC1)CCN(C(=O)c1cccnc1)CC2 [Compound 80, {9-[Methyl-(7H-pyrrolo[2,3-d]pyrimidin-4-yl)-amino]-3-aza-spiro[5.5]undec-3-yl}-pyridin-3-yl-methanone]"
100 to 1000,100 to 1000,1000 to 10000,"CN(c1ncnc2[nH]ccc12)C1CC2(C1)CN(C(=O)CO)C2 [Compound 3, 2-hydroxy-1-(6-(methyl(7H-pyrrolo[2,3-d]pyrimidin-4-yl)amino)-2-azaspiro[3.3]heptan-2-yl)ethanone]"
10 to 100,100 to 1000,1000 to 10000,"CN(c1ncnc2[nH]ccc12)C1CC2(C1)CN(C(=O)c1ccc(C3CC3)cc1)C2 [Compound 39, (4-cyclopropylphenyl)(6-(methyl(7H-pyrrolo[2,3-d]pyrimidin-4-yl)amino)-2-azaspiro[3.3]heptan-2-yl)methanone]"
10 to 100,1000 to 10000,1000 to 10000,"CN(c1ncnc2[nH]ccc12)C1CC2(C1)CN(C(=O)c1csc3ccccc13)C2 [Compound 22, benzo[b]thiophen-3-yl(6-(methyl(7H-pyrrolo[2,3-d]pyrimidin-4-yl)amino)-2-azaspiro[3.3]heptan-2-yl)methanone]"
100 to 1000,100 to 1000,1000 to 10000,"Cc1ccsc1C(=O)N1CCC2(CCC(N(C)c3ncnc4[nH]ccc34)CC2)CC1 [Compound 94, {9-[Methyl-(7H-pyrrolo[2,3-d]pyrimidin-4-yl)-amino]-3-aza-spiro[5.5]undec-3-yl}-(3-methyl-thiophen-2-yl)-methanone]"
100 to 1000,100 to 1000,1000 to 10000,"CN(c1ncnc2[nH]ccc12)C1CCC2(CC1)CCN(C(=O)c1cnccn1)CC2 [Compound 88, {9-[Methyl-(7H-pyrrolo[2,3-d]pyrimidin-4-yl)-amino]-3-aza-spiro[5.5]undec-3-yl}-pyrazin-2-yl-methanone]"
100 to 1000,100 to 1000,1000 to 10000,"CCC(=O)N1CC2(CC(N(C)c3ncnc4[nH]ccc34)C2)C1 [Compound 5, 1-(6-(methyl(7H-pyrrolo[2,3-d]pyrimidin-4-yl)amino)-2-azaspiro[3.3]heptan-2-yl)propan-1-one]"
10 to 100,100 to 1000,1000 to 10000,"CN(c1ncnc2[nH]ccc12)C1CC2(C1)CN(C(=O)C1CCC(=O)CC1)C2 [Compound 12, 4-(6-(methyl(7H-pyrrolo[2,3-d]pyrimidin-4-yl)amino)-2-azaspiro[3.3]heptane-2-carbonyl)cyclohexanone]"
100 to 1000,100 to 1000,100 to 1000,"CN(c1ncnc2[nH]ccc12)C1CCC2(CC1)CCN(C(=O)CCC#N)CC2 [Compound 81, 4-{9-[Methyl-(7H-pyrrolo[2,3-d]pyrimidin-4-yl)-amino]-3-aza-spiro[5.5]undec-3-yl}-4-oxo-butyronitrile]"
100 to 1000,100 to 1000,1000 to 10000,"CN(c1ncnc2[nH]ccc12)C1CCC2(CC1)CCN(C(=O)CCS(C)(=O)=O)CC2 [Compound 86, 3-Methanesulfonyl-1-{9-[methyl-(7H-pyrrolo[2,3-d]pyrimidin-4-yl)-amino]-3-aza-spiro[5.5]undec-3-yl}-propan-1-one]"
100 to 1000,1000 to 10000,1000 to 10000,"CCOC(=O)N1CC2(CC(N(C)c3ncnc4[nH]ccc34)C2)C1 [Compound 8, ethyl 6-(methyl(7H-pyrrolo[2,3-d]pyrimidin-4-yl)amino)-2-azaspiro[3.3]heptane-2-carboxylate]"
100 to 1000,1000 to 10000,≥ 10000,"CN(c1ncnc2[nH]ccc12)C1CC2(C1)CN(C(=O)c1cnn(C3CC3)c1)C2 [Compound 69, (1-Cyclopropyl-1H-pyrazol-4-yl)-{6-[methyl-(7H-pyrrolo[2,3-d]pyrimidin-4-yl)-amino]-2-aza-spiro[3.3]hept-2-yl}-methanone]"
100 to 1000,1000 to 10000,1000 to 10000,"CN(c1ncnc2[nH]ccc12)C1CCC2(CC1)CCN(C(=O)C1CCC(=O)CC1)CC2 [Compound 82, 4-{9-[Methyl-(7H-pyrrolo[2,3-d]pyrimidin-4-yl)-amino]-3-aza-spiro[5.5]undecane-3-carbonyl}-cyclohexanone]"
